# Measurements from ChEMBL document CHEMBL1201862, “PubChem BioAssay data set” (2004).
#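 Assay format: 96-well plates, 48-hour exposure. GI50: concentration for 50% inhibition of growth.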 Calls of active or inactive are those of the source. Rule as the data show it: active = GI50 up to about 1.1 µM and inactive = higher.
# What was measured:
# Assay in all cases: NCI anticancer screen, dose series, 48 h
# UO-31 = tested on: UO-31
# A498 = tested on: A498
# M14 = tested on: M14
# HOP-92 = tested on: HOP-92
# EKVX = tested on: EKVX
# OVCAR-3 = tested on: OVCAR-3
# SK-MEL-28 = tested on: SK-MEL-28
# MDA-MB-231 = tested on: MDA-MB-231
# DU-145 = tested on: DU-145
# MOLT-4 = tested on: MOLT-4
# UACC-257 = tested on: UACC-257
# Malme-3M = tested on: Malme-3M
# A549 = tested on: A549
# OVCAR-4 = tested on: OVCAR-4
# PC-3 = tested on: PC-3
# Hs-578T = tested on: Hs-578T
# HCC 2998 = tested on: HCC 2998
# TK-10 = tested on: TK-10
# NCI-H226 = tested on: NCI-H226
# HL-60 = tested on: HL-60
Compound,GI50 (UO-31),GI50 (A498),GI50 (M14),GI50 (HOP-92),GI50 (EKVX),GI50 (OVCAR-3),GI50 (SK-MEL-28),GI50 (MDA-MB-231),GI50 (DU-145),GI50 (MOLT-4),GI50 (UACC-257),GI50 (Malme-3M),GI50 (A549),GI50 (OVCAR-4),GI50 (PC-3),GI50 (Hs-578T),GI50 (HCC 2998),GI50 (TK-10),GI50 (NCI-H226),GI50 (HL-60)
C/C=C\C(CC(=O)O)CC(=O)NCCC1CN(S(=O)(=O)C(F)(F)F)c2ccccc21 (configuration not stated),> 100 µM (inactive),> 100 µM (inactive),> 100 µM (inactive),> 100 µM (inactive),> 100 µM (inactive),> 100 µM (inactive),> 100 µM (inactive),> 100 µM (inactive),> 100 µM (inactive),> 100 µM (inactive),> 100 µM (inactive),> 100 µM (inactive),> 100 µM (inactive),> 100 µM (inactive),> 100 µM (inactive),> 100 µM (inactive),> 100 µM (inactive),,,
O=C(O)C(Cc1c[nH]c2ccccc12)N1C(=O)c2ccccc2C1=O (configuration not stated),> 100 µM (inactive),> 100 µM (inactive),> 100 µM (inactive),0.785 µM (active),> 100 µM (inactive),> 100 µM (inactive),> 100 µM (inactive),> 100 µM (inactive),> 100 µM (inactive),,> 100 µM (inactive),> 100 µM (inactive),> 100 µM (inactive),> 100 µM (inactive),> 100 µM (inactive),> 100 µM (inactive),> 100 µM (inactive),> 100 µM (inactive),> 100 µM (inactive),
CC(C)C1=CC(=O)C(C)(C2C(O)CC3(C)C4CC=C5C(CCC(OC6OC(CO)C(O)C(O)C6OC6OC(C)C(O)C(O)C6O)C5(C)C)C4(C)C(=O)CC23C)O1 (configuration not stated),> 100 µM (inactive),> 100 µM (inactive),> 100 µM (inactive),> 100 µM (inactive),> 100 µM (inactive),> 100 µM (inactive),> 100 µM (inactive),> 100 µM (inactive),> 100 µM (inactive),> 100 µM (inactive),> 100 µM (inactive),> 100 µM (inactive),> 100 µM (inactive),> 100 µM (inactive),> 100 µM (inactive),> 100 µM (inactive),> 100 µM (inactive),,> 100 µM (inactive),
O=C(O)CCC(=O)c1ccc2sc3ccccc3c2c1,> 100 µM (inactive),27.9 µM (inactive),> 100 µM (inactive),,> 100 µM (inactive),> 100 µM (inactive),> 100 µM (inactive),> 100 µM (inactive),> 100 µM (inactive),> 100 µM (inactive),> 100 µM (inactive),> 100 µM (inactive),> 100 µM (inactive),> 100 µM (inactive),> 100 µM (inactive),> 100 µM (inactive),,91.6 µM (inactive),> 100 µM (inactive),15.8 µM (inactive)
CC1(C)Oc2ccc(Cl)cc2C12CC2,16.9 µM (inactive),15.1 µM (inactive),18.8 µM (inactive),,10.8 µM (inactive),13.8 µM (inactive),17.9 µM (inactive),16.6 µM (inactive),15.8 µM (inactive),17.1 µM (inactive),15.1 µM (inactive),23.4 µM (inactive),18.9 µM (inactive),13.8 µM (inactive),13.9 µM (inactive),24.4 µM (inactive),15.8 µM (inactive),18.4 µM (inactive),13.6 µM (inactive),18.5 µM (inactive)
O=[N+]([O-])/C=C/c1cccc(F)c1,2.54 µM (inactive),13.7 µM (inactive),2.74 µM (inactive),11.6 µM (inactive),3.03 µM (inactive),2.39 µM (inactive),2.28 µM (inactive),16.4 µM (inactive),4.47 µM (inactive),,3.79 µM (inactive),15.8 µM (inactive),4.16 µM (inactive),3.75 µM (inactive),3.01 µM (inactive),3.12 µM (inactive),12 µM (inactive),3.82 µM (inactive),2.25 µM (inactive),
COc1ccc(OC)c(/C=C2/C(=O)N/C(=N\C(C)=O)N2C)c1,> 100 µM (inactive),,> 100 µM (inactive),> 100 µM (inactive),> 100 µM (inactive),> 100 µM (inactive),> 100 µM (inactive),> 100 µM (inactive),> 100 µM (inactive),> 100 µM (inactive),> 100 µM (inactive),,> 100 µM (inactive),> 100 µM (inactive),> 100 µM (inactive),> 100 µM (inactive),> 100 µM (inactive),> 100 µM (inactive),> 100 µM (inactive),95.1 µM (inactive)
Cc1cc2ccccc2n1CC(=O)NCC(C)C,> 100 µM (inactive),,> 100 µM (inactive),> 100 µM (inactive),> 100 µM (inactive),> 100 µM (inactive),> 100 µM (inactive),> 100 µM (inactive),> 100 µM (inactive),> 100 µM (inactive),> 100 µM (inactive),> 100 µM (inactive),> 100 µM (inactive),> 100 µM (inactive),> 100 µM (inactive),> 100 µM (inactive),> 100 µM (inactive),> 100 µM (inactive),> 100 µM (inactive),> 100 µM (inactive)
Cc1ccc(-c2nc3cc(Cl)ccc3[nH]2)cc1,> 100 µM (inactive),,> 100 µM (inactive),> 100 µM (inactive),> 100 µM (inactive),> 100 µM (inactive),> 100 µM (inactive),> 100 µM (inactive),> 100 µM (inactive),32.4 µM (inactive),> 100 µM (inactive),> 100 µM (inactive),83.4 µM (inactive),> 100 µM (inactive),79.1 µM (inactive),> 100 µM (inactive),53.2 µM (inactive),> 100 µM (inactive),> 100 µM (inactive),27 µM (inactive)
NC(=S)SC1=NC(=O)C2(NN1)c1ccccc1-c1ccccc12,9.1 µM (inactive),,> 10 µM (inactive),> 10 µM (inactive),6.58 µM (inactive),,> 10 µM (inactive),> 10 µM (inactive),> 10 µM (inactive),,> 10 µM (inactive),> 10 µM (inactive),> 10 µM (inactive),> 10 µM (inactive),> 10 µM (inactive),> 10 µM (inactive),> 10 µM (inactive),> 10 µM (inactive),> 10 µM (inactive),> 10 µM (inactive)
Cc1coc2c1[C@@H](O)[C@@]1(C)[C@H](CCC[C@@H]1C)C2,,,18.2 µM (inactive),51.2 µM (inactive),69 µM (inactive),23.9 µM (inactive),48.2 µM (inactive),27.2 µM (inactive),37 µM (inactive),24.8 µM (inactive),33 µM (inactive),30 µM (inactive),,58.7 µM (inactive),36.5 µM (inactive),61.7 µM (inactive),42.4 µM (inactive),> 100 µM (inactive),25.5 µM (inactive),23.7 µM (inactive)
CCCC(=O)OC1CC(n2cc(F)c(=O)[nH]c2=O)OC1CO (configuration not stated),0.362 µM (active),2.07 µM (inactive),0.33 µM (active),,> 10 µM (inactive),3.69 µM (inactive),> 7.21 µM (inactive),> 8.95 µM (inactive),0.182 µM (active),> 6.89 µM (inactive),> 4.49 µM (inactive),> 8.79 µM (inactive),0.0538 µM (active),> 10 µM (inactive),1.48 µM (inactive),> 3.19 µM (inactive),0.0202 µM (active),> 2.67 µM (inactive),> 10 µM (inactive),0.646 µM (active)
C(=NCCN1CCOCC1)=NC1CCCCC1,> 100 µM (inactive),> 100 µM (inactive),> 100 µM (inactive),> 100 µM (inactive),> 100 µM (inactive),> 100 µM (inactive),> 100 µM (inactive),> 100 µM (inactive),> 100 µM (inactive),> 100 µM (inactive),> 100 µM (inactive),> 100 µM (inactive),> 100 µM (inactive),> 100 µM (inactive),> 100 µM (inactive),> 100 µM (inactive),,> 100 µM (inactive),> 100 µM (inactive),
O=C1NNC2(C(=O)N1)c1ccccc1-c1ccccc12,> 10 µM (inactive),,> 10 µM (inactive),> 10 µM (inactive),6.71 µM (inactive),,> 10 µM (inactive),> 10 µM (inactive),> 10 µM (inactive),> 10 µM (inactive),> 10 µM (inactive),> 10 µM (inactive),> 10 µM (inactive),> 10 µM (inactive),> 10 µM (inactive),> 10 µM (inactive),> 10 µM (inactive),> 10 µM (inactive),> 10 µM (inactive),> 10 µM (inactive)
COc1cc(N(CCC#N)CCC#N)ccc1C(=N/NC(=O)c1cc(Br)ccc1O)/N=N/c1ccccc1,21.6 µM (inactive),,29 µM (inactive),24.3 µM (inactive),21.1 µM (inactive),22 µM (inactive),27.9 µM (inactive),21.2 µM (inactive),27.9 µM (inactive),15.9 µM (inactive),24.7 µM (inactive),31.7 µM (inactive),25.4 µM (inactive),19.6 µM (inactive),25.5 µM (inactive),61.2 µM (inactive),23.3 µM (inactive),33.1 µM (inactive),33.2 µM (inactive),13.9 µM (inactive)
